Experiments:
[1] = system: bone marrow-derived macrophages (BMDM) treated with LPS; experiment: Suppression of LPS-induced inflammation in bone marrow-derived macrophages (BMDM in vitro); format: cell-based; settings: BMDM (FIG. 2)
Excerpt: Since macrophage is the major responder to LPS-induced inflammation, we assessed the capability of selected compounds to suppress LPS-induced inflammation in bone marrow-derived macrophages (BMDM).

[2] = system: glycosidases of human fibroblast lysates; experiment: Stability of the glycosidic linkage to glycosidases upon incubation with human fibroblast lysates; format: in vitro ADME; settings: 4 h, 37° C., compound solution 200 μM, 0.1 M citrate buffer pH 4.5
Protocol: The stability of the glyosidic linkage in compounds 2, 4, 6, 8, 10, 12, 14, 16, 18, 20, 22, 23, 25, 27 and 29, selected as representative examples, upon incubation with human fibroblast lysates for 4 h was checked. For such purpose, cells were scraped into ice-cold H2O (10^6 cells mL^−1) and lysed by sonication. Insoluble materials were removed by centrifugation at 15,000 rpm for 5 min and protein concentrations were determined with Protein Assay Rapid Kit (WAKO, Tokyo, Japan). 10 μL of the lysates in 0.1% Triton X-100 in distilled water were incubated at 37° C. with 20 μL of the compound solution (200 μM) in 0.1 M citrate buffer, pH 4.5. In control experiments, the activity of several lysosomas glycosidases was confirmed using fluorescent substrates. The substrates were 4-methylumbelliferone (4-MU)-conjugated β-D-glucopyranoside (for GCase), α-D-glucopyranoside (for α-glucosidase), α-D-galactopyranoside (for α-Galase) and β-D-galactopyranoside (for β-galactosidase). The liberated 4-methylumbelliferone was measured in the black-well plate with a Perkin Elmer Luminescence Spectrometer (excitation wavelength: 340 nm; emission: 460 nm).

Splenocytes = experiment: Immune-stimulating function of compounds alone (splenocytes in vitro); format: cell-based, mouse
Protocol: FIG. 6. […] Splenocytes were treated with the compounds of the invention alone to assess the immune-stimulating function of the compounds. Compounds 12, 18, 22, 27, and 29 induced significant IFNγ secretion, and compound 8 induced significant IL-4 secretion.
The whole spleen was surgically removed from a mouse and mechanically dissociated into a single cell suspension of splenocytes, which were then cultured in the complete RPMI 1640 medium (cRPMI). Human peripheral blood mononuclear cells (PBMCs) from healthy volunteers were collected from whole blood through gradient-centrifugation with Histopaque-1077 (Sigma-Aldrich).
Splenocytes were treated with the compounds of the invention alone to assess the immune-stimulating function of the compounds by measuring their ability to promote the secretions of IFN-γ and IL-4.

[3] = system: BMDC from MyD88 deficient mice; experiment: MyD88 dependency of BMDC maturation; format: cell-based; settings: BMDC from MyD88 deficient mice (FIG. 16)
Excerpt: (§1) To determine whether the adjuvancy function of the representative compound 12 is MyD88-dependent or not, we performed experiments with immune cells isolated from MyD88 knocked-out (KO) mice. […] Data are dose-dependent and differences become more pronounced at the higher concentrations. […] Taken together, the results support that compound 12 adjuvancy function is MyD88-dependent.

[4] = system: OVA-induced AHR mouse model; experiment: Suppression of OVA-induced airway inflammation in vivo (IL-13 and IL-4 in BALF and lungs); settings: OVA-induced AHR experiment
Protocol: FIG. 8. […] The bronchoalveolar lavage fluid (BALF) from mice in the OAV-induced AHR experiment was examined forth IL-13 and IL-4 levels.
FIG. 9. […] The lungs from mice in the OAV-induced AHR experiment was examined for their IL-13 and IL-4 protein level.
FIG. 10. […] The lungs from mice in the OAV-induced AHR experiment was examined for their IL-13 and IL-4 mRNA levels.
(§2) For ovalbumin (OVA) challenge, mice were sensitized intraperitoneally (i.p.) with 50 μg of OVA with 2% alhydrogel adjuvant (InvivoGen). Mice were challenged three times with 50 μg of OVA on day 7 post-sensitization, either daily or every other day. Mice were sacrificed the day after the last OVA challenge. The scheme of the OT-1 adoptive transfer mouse model for examining the proliferation of CD8^+ T cells in adjuvanting OVA challenge is described in FIG. 13.
Upon exposure of the trachea, the lungs were lavaged twice with 1 mL of PBS supplemented with 2% fetal calf serum (FCS). BALF was pooled and bronchoalveolar (BAL) cells were pelleted by centrifugation and fixed onto cytospin slides. The slides were stained with Diff-Quik solution (Polysciences Inc) and BAL differential cell count was performed.
Using the Th2 OVA-induced AHR mouse model, we assessed the capability of selected compounds 8, 12, 18, and 27 in suppressing Th2 inflammation.

[5] = system: LPS-induced inflammation in B6 mice; experiment: Suppression of LPS-induced inflammation in vivo; settings: injected twice in a half hour time after LPS-treatment (FIG. 3)
Protocol: FIG. 3. […] The in vivo capability of compound 12 in suppressing LPS-induced inflammation in B6 mice was assessed as indicated in the scheme.
To determine the anti-inflammatory function in vivo, we assessed the capability of compound 12 in suppressing LPS-induced inflammation in B6 mice.

[6] = system: DC-maturation marker CD86 in the spleen of mice; experiment: DC maturation in vivo (CD86 mRNA in spleen); settings: mice injected with the compound (FIG. 12)
Protocol: FIG. 12. […] The capability of selected compounds 8, 12, 18, 27, and 29 in promoting DC maturation in vivo was assessed by the mRNA level of DC-maturation marker CD86 in the spleen of mice injected with the compounds of the invention.
The capability of selected compounds 8, 12, 18, 27, and 29 in promoting DC maturation in vivo was assessed by the mRNA level of DC-maturation marker CD86 in the spleen of mice injected with the compounds of the invention.

[7] = system: splenocytes isolated from MyD88 KO mice; experiment: MyD88 dependency of cytokine induction (splenocytes from MyD88 KO mice in vitro); format: cell-based
Excerpt: FIG. 14. […] The dependency of the compounds of the invention on functional MyD88 for biological function was examined using the representative compound 12, with immune cells isolated from MyD88 knocked-out mice. […] IL-4 was not detectable with compound 12 treatment, indicating a Th1-biased property.
as §1

[8] = system: CD8+ T cells in the spleen, OT-1 adoptive transfer mouse model; experiment: Th1 immune response in vivo (CD8+ T cell proliferation, OT-1 adoptive transfer mouse model); settings: OT-1 adoptive transfer mouse model (FIG. 13)
Protocol: FIG. 13. […] The adjuvancy capability of selected compounds 12 and 27 in vivo was assessed by their capability in promoting the proliferation of CD8^+ T cells in the spleen in the OT-1 adoptive transfer mouse model as described in the scheme.
as §2
Compounds 12 and 27 were injected into OT-1 mice (transgenic mice that express a TCR that is specific for an ovalbumin OVA peptide) to validate the Th1-biased immunomodulation property.

[9] = splenocytes treated with compound alone (FIG. 6)
[10] = bronchoalveolar lavage fluid (FIG. 8)

With `CCCCCCCCCCCCNC(=O)C(COC1C(O)C(O)C(O)C2COC(=O)N21)NC(=O)CCCCCCCCCCC` (centres unmarked) [Compound 12] the “suppression of LPS-induced inflammation” value [1] was “particularly efficient in suppressing LPS-induced inflammation”, the “suppression of IL-6” value ([1]; LPS-induced) was “significant suppression” and the “suppression of TNFα” value ([1]; LPS-induced) was “significant suppression”. For the same compound, the “hydrolysis of the glycolipid mimetic (free polysubstituted 2-oxa-3-oxoindolizidine detected by gas chromatography)” value [2] was “No traces of the free polysubstituted 2-oxa-3-oxoindolizidine”, the Th1/Th2 bias (Splenocytes; concluded from IFNγ and IL-4 secretion of splenocytes (FIG. 6)) was “Th1-biased” and the IFNγ secretion (Splenocytes; [9]) was “effective in promoting the productions of IFNγ”. For the same compound, the IL-4 secretion (Splenocytes; [9]) was “not IL-4”, the “maturation of BMDC induced by compound treatment” value [3] was “impeded” and the “IL-4 level in BALF” value [4, 10] was “significantly suppressed”. The “IL-13 level in BALF” value [4, 10] was “significantly suppressed”, the “IL-4 mRNA level in lungs” value ([4]; lung mRNA (FIG. 10)) was “could significantly suppress” and the “IL-13 mRNA level in lungs” value ([4]; lung mRNA (FIG. 10)) was “significantly suppressed”. The “IL-4 protein level in lungs” value ([4]; lung protein (FIG. 9)) was “significantly suppressed”, the “IL-13 protein level in lungs” value ([4]; lung protein (FIG. 9)) was “significantly suppressed” and the “level of IL-6 in sera” value [5] was “significantly suppressed”. For the same compound, the “level of TNFα in sera” value [5] was “significantly suppressed”, the “CD86 mRNA expression in the spleens of mice” value [6] was “significant increase” and the “ability to induce IFNγ” value ([7]; splenocytes isolated from MyD88 KO mice (FIG. 14)) was “completely abrogated”. The IL-4 induction ([7]; splenocytes, MyD88 experiment (FIG. 14)) was “no IL-4 induction was observed” and the “proliferation of CD8+ T cells in the spleen” value [8] was “significant CD8^+ T cell proliferation”.
